The target in experiment [1] is Acyl-protein thioesterase 1 (Homo sapiens) (UniProt O75608). In words: LYPLA1 and LYPLA2 inhibitors in proteome, late-stage follow-up, selectivity assay for LYPLA1/LYPLA2 inhibitor project, cell lysate, gel-based ABPP, fluorescence, HEK293T proteome, powder samples (AID 651988). Particulars: HEK293T soluble proteome, FP-PEG-Rh fluorescence, LYPLA1, at 10 µM, hits give high values.

The target of experiment [2] is Acyl-protein thioesterase 2 (Homo sapiens) (UniProt O95372). The experiment is described as above. Particulars: HEK293T soluble proteome, FP-PEG-Rh fluorescence, LYPLA2, at 10 µM, hits give high values.
Chain of Acyl-protein thioesterase 2 (Homo sapiens) (O95372 whole entry, looked up): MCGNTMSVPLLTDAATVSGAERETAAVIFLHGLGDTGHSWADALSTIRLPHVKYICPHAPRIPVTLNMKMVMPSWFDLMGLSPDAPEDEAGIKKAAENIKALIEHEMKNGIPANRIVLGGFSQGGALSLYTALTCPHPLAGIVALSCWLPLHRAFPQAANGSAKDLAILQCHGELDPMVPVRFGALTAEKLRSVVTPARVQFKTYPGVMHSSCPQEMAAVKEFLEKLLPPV

The source made the active and inactive calls.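 The calls were made as follows: active = inhibition of 50% or more at 300 nM in exactly one of the two enzyme panels, LYPLA1 or LYPLA2; inactive = under 50% in both panels, or reaching 50% in both.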

Broadly, the inhibition is the relative decrease from the control value, in per cent.

Chain of Acyl-protein thioesterase 1 (Homo sapiens) (O75608 whole entry, looked up): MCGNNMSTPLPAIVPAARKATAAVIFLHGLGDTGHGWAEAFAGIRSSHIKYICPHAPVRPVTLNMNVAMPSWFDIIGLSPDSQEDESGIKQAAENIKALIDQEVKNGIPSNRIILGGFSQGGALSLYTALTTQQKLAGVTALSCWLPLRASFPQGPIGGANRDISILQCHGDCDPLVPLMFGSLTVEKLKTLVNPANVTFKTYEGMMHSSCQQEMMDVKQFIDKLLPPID

Regarding `O=C(CN1CCN(C(=O)c2ccccc2)CC1)Nc1cc(S(=O)(=O)N2CCCC2)ccc1Cl`, the inhibition in experiment [1] is 75% (inactive); in experiment [2], 0% (inactive).

For `CCOC(=O)N1CCN(C(=O)c2cc3c(s2)-c2ccc(Cl)cc2S(=O)(=O)C3)CC1`, the inhibition in experiment [1] and in experiment [2] was 0% (inactive) throughout.

Take `CC1CCc2c(sc(NC(=O)CN3CCN(C(=O)c4ccco4)CC3)c2C#N)C1` (configuration not stated): the inhibition in experiment [1] and in experiment [2] was 0% (inactive) in each case.

`O=C(CN1CCN(C(=O)c2ccco2)CC1)Nc1cc(Cl)ccc1Cl`: the inhibition was 100% in experiment [1] and 25% (inactive) in experiment [2].

With `O=C(CN1CCN(C(=O)c2ccco2)CC1)Nc1cc(C(F)(F)F)ccc1Cl`, the inhibition in experiment [1] was 100%; in experiment [2] it was 25% (inactive).

For the compound `O=C(CN1CCN(C(=O)c2ccco2)CC1)Nc1ccc(Br)cc1Cl`, the inhibition in experiment [1] and in experiment [2] was 50% (inactive) throughout.

On to `O=C(CN1CCN(C(=O)c2ccco2)CC1)Nc1ccc(Cl)cc1Cl`, for which the inhibition in experiment [1] and in experiment [2] was 50% (inactive) in each case.

On to `COc1ccc(N2CCN(C(=O)c3cc4c(s3)-c3ccccc3S(=O)(=O)C4)CC2)cc1`, for which the inhibition is 0% (inactive) in experiment [1] and 100% in experiment [2].

As for `O=C(c1cc2c(s1)-c1ccc(Cl)cc1S(=O)(=O)C2)N1CCN(c2ncccn2)CC1`, the values for the inhibition in experiment [1] and in experiment [2] were 0% (inactive) and 75% (inactive), respectively.

Regarding `Cc1nnsc1C(=O)N1CCCC(N2CCN(c3cccc(C(F)(F)F)c3)CC2)C1` (configuration not stated), the inhibition in experiment [1] and in experiment [2] was 0% (inactive) each time.

Take `COc1ccccc1N1CCN(C(=O)c2cc3c(s2)-c2ccccc2S(=O)(=O)C3)CC1`: the inhibition in experiment [1] and in experiment [2] was 0% (inactive) each time.

Consider `O=C(c1cc2c(s1)-c1ccccc1S(=O)(=O)C2)N1CCN(c2cccc(Cl)c2)CC1`, for which the inhibition in experiment [1] and in experiment [2] was 0% (inactive) throughout.

In the case of `O=C(c1cc2c(s1)-c1ccc(Cl)cc1S(=O)(=O)C2)N1CCN(c2ccccn2)CC1`, the inhibition in experiment [1] and in experiment [2] was 0% (inactive) each time.

`CC(C(=O)Nc1cccc(C(F)(F)F)c1)N1CCN(C(=O)c2ccco2)CC1` (configuration not stated): the inhibition in experiment [1] and in experiment [2] was 0% (inactive) throughout.

On to `O=C(c1cc2c(s1)-c1ccccc1S(=O)(=O)C2)N1CCN(C2CCCCC2)CC1`, for which the figures for the inhibition in experiment [1] and in experiment [2] were 0% (inactive) and 25% (inactive), respectively.

On to `O=C(COc1ccc(Cl)cc1)N1CCN(c2cccc(C(F)(F)F)c2)CC1`, for which the values for the inhibition in experiment [1] and in experiment [2] were 25% (inactive) and 0% (inactive), respectively.

Take `O=C(c1cc2c(s1)-c1ccccc1S(=O)(=O)C2)N1CCN(c2ccc(Cl)cc2)CC1`: the inhibition in experiment [1] was 0% (inactive); in experiment [2], 100% (inactive).

`O=C(CN1CCN(C(=O)c2ccco2)CC1)Nc1cccc(Cl)c1Cl`: the inhibition in experiment [1] and in experiment [2] was 0% (inactive) throughout.

In the case of `COc1ccc(N2CCN(C(=O)c3cc4c(s3)CCCCC4)CC2)cc1`, the inhibition is 0% (inactive) in experiment [1] and 100% (inactive) in experiment [2].

For `O=C(c1cc2c(s1)-c1ccccc1S(=O)(=O)C2)N1CCN(Cc2ccccc2)CC1`, the inhibition in experiment [1] was 0% (inactive); in experiment [2], 50% (inactive).

Regarding `COc1ccc(N2CCN(C(=O)c3ccc(C(C)(C)C)cc3)CC2)cc1`, the inhibition in experiment [1] is 0% (inactive); in experiment [2], 75% (inactive).

For `O=C(c1cc2c(s1)-c1ccccc1S(=O)(=O)C2)N1CCN(c2ccccc2)CC1`, the inhibition in experiment [1] was 0% (inactive); in experiment [2] it was 75% (inactive).

Regarding `O=C(c1ccco1)N1CCN(C(=S)Nc2cccc([N+](=O)[O-])c2)CC1`, the inhibition in experiment [1] and in experiment [2] was 0% (inactive) each time.

`O=C(c1ccco1)N1CCN(C(=S)Nc2ccc(F)c(Cl)c2)CC1`: the inhibition is 100% (inactive) in experiment [1] and 50% (inactive) in experiment [2].

Take `O=C(c1cc2c(s1)-c1ccc(Cl)cc1S(=O)(=O)C2)N1CCN(C2CCCCC2)CC1`: the figures for the inhibition in experiment [1] and in experiment [2] were 0% (inactive) and 75% (inactive), respectively.

Turning to `O=C(Nc1ccc(N2CCN(C(=O)c3ccco3)CC2)c(Cl)c1)c1c(F)c(F)c(F)c(F)c1F`, the inhibition in experiment [1] is 75% (inactive); in experiment [2], 50% (inactive).

(Values after PubChem BioAssay AID651988 (The Scripps Research Institute Molecular Screening Center, 2013).)
